{"source": "patent US20240269204A1", "about": "“COMPOSITION FOR ALLEVIATING SKIN DAMAGE CAUSED BY HYPOXIA CONTAINING SACCHAROMYCES CEREVISIAE STRAIN” (AMOREPACIFIC CORPORATION, priority 2023, published 2024)", "key": {"[1]": {"tested_on": "MMP1", "experiment": "MMP1 gene expression by qPCR in CoCl2-induced hypoxic keratinocytes", "format": "cell-based", "settings": "keratinocytes (HEKn) treated with 200 μM CoCl2, 2.5 µM EGCG, cultured for 18 hours", "experimental": "(§1) First, keratinocytes (HEKn) (onza, Switzerland) were treated with 200 μM CoCl2 to induce a hypoxic environment. After that, the expression level of hypoxia-inducible factor 1-alpha (HIF1A) that was known to be expressed under hypoxia was compared with that before the treatment with CoCl2 (CTL in FIG. 1) to confirm that the expression level of HIF1A increased compared with that before the treatment with CoCl2 (FIG. 1), and thus skin (keratinocytes) damaged by hypoxia (hereinafter referred to as hypoxic keratinocytes) was prepared. Thereafter, in order to verify the effect of the strain isolated in Example 1 on the alleviation of skin damage due to hypoxia, the hypoxic keratinocytes were treated with the extract prepared in Example 2 at various concentrations and then cultured for 18 hours. […] Specifically, 10 μL of universal master mix (Taqman 2X Universal PCR mix, Applied Biosystems, Cat. No. 4304437) and 1 μL of TaqMan probe were added, 5 μL of CDNA was added to obtain a total volume of 20 μL, and PCR was performed using the Applied biosystem 7500 fast real time PCR system and the provided standard protocol. The expression of MMP1, an aging-related gene, and COX2, an inflammation-related gene, was examined through qPCR, and the results are illustrated in FIGS. 2 and 3. At this time, EGCG was used as Comparative Example. […]"}, "[2]": {"tested_on": "COX2", "experiment": "COX2 gene expression by qPCR in CoCl2-induced hypoxic keratinocytes", "format": "cell-based", "settings": "keratinocytes (HEKn) treated with 200 μM CoCl2, EGCG at 2.5 ppm, cultured for 18 hours", "experimental": "as §1"}}, "data": [{"smiles": "O=C(O[C@@H]1Cc2c(O)cc(O)cc2O[C@@H]1c1cc(O)c(O)c(O)c1)c1cc(O)c(O)c(O)c1", "note": "[EGCG]", "values": [{"measurement": "inhibition of MMP1 overexpressed by hypoxia (expression level of MMP1, FIG. 2)", "setting": "[1]", "result": "cannot inhibit MMP1 overexpressed by hypoxia"}, {"measurement": "inhibition of COX2 overexpressed by hypoxia (expression level of COX2, FIG. 3)", "setting": "[2]", "result": "cannot inhibit expression of COX2 overexpressed by hypoxia"}]}]}
